Laboratory results taken from US20080085884A1, “Melanin Concentrating Hormone Receptor-1 Antagonist Pyridinones” (Pfizer Inc, priority 2006, published 2008).
Counter-ions that a name gives are not always drawn.

molecular target: T1, human MCHR1 (Homo sapiens, UniProt Q99705); experiment: Cyclic AMP assay (MCHR-1 functional antagonism); assay type: cell-based; settings: CHO cells stably expressing human MCHR1; cAMP accumulation with 25 uM forskolin and 0.2 nM MCH, 90 min; Ki from IC50 by Cheng-Prusoff; read-out: MCHR-1 functional Ki
T1 construct: host or cells: CHO
T1 sequence (Q99705 whole entry): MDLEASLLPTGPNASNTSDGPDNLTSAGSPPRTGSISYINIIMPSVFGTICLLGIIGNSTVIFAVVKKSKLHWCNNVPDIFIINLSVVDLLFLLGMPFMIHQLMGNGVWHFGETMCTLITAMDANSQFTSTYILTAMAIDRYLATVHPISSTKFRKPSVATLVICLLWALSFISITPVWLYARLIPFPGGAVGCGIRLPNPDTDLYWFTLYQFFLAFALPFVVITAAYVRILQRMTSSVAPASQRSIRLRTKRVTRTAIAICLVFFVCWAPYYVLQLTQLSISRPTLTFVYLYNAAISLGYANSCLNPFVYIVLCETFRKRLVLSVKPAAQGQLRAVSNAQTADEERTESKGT
Method: CHO cell lines stably expressing the human MCHR1 (Euroscreen, Brussels, Belgium) were maintained in DMEM containing Glutamax (Invitrogen, Carlsbad, Calif.), 10% FBS, 400 ug/ml Geneticin.
Cyclic AMP assays. CHO cells stably expressing the human MCHR1 receptors were collected and resuspended at a density of 4.0×10^6 cells/ml in F12 (Hams) media and seeded (20,000 cells per well) into 384-well, solid white Greiner assay plates. […] Cells were incubated at 37° C./5% CO2 for 90 minutes and cAMP accumulation subsequently determined by DiscoveRx Hithunter c-AMP II Assay kit (GE Healthcare, Buckinghamshire, UK) in accordance with manufactures instructions. Luminescence was measured on a LEADseaker imaging system (GE Healthcare, Buckinghamshire, UK). IC50 values were calculated from dose-response data fit using an in-house computer graphics and statistics program.

| Ki | Structure (SMILES) |
| --- | --- |
| 80.9 nM | CN(C)C(=O)C1CCN(c2ccc(-n3ccc(OCc4ccccc4)cc3=O)cn2)C1 (racemic) [Example 25, 1-[4-(Benzyloxy)-2-oxo-2H-1,3′-bipyridin-6′-yl]-N,N-dimethylpyrrolidine-3-carboxamide] |
| 15.3 nM | CC1(N)CCN(c2ccc(-n3ccc(OCc4ccccc4)cc3=O)cn2)C1 (single isomer, unassigned) [Example 17a, 6′-(3-Amino-3-methylpyrrolidin-1-yl)-4-(benzyloxy)-2H-1,3′-bipyridin-2-one] |
| 38.1 nM | CC1(N)CCN(c2ccc(-n3ccc(OCc4ccccc4)cc3=O)cn2)C1 (single isomer, unassigned) [Example 17b, 6′-(3-Amino-3-methylpyrrolidin-1-yl)-4-(benzyloxy)-2H-1,3′-bipyridin-2-one] |
| 8.86 nM | CNC1(C)CCN(c2ccc(-n3ccc(OCc4ccccc4)cc3=O)cn2)C1 (single isomer, unassigned) [Example 18a, 4-(Benzyloxy)-6′-[3-methyl-3-(methylamino)pyrrolidin-1-yl]-2H-1,3′-bipyridin-2-one] |
| 18.3 nM | CNC1(C)CCN(c2ccc(-n3ccc(OCc4ccccc4)cc3=O)cn2)C1 (single isomer, unassigned) [Example 18b, 4-(Benzyloxy)-6′-[3-methyl-3-(methylamino)pyrrolidin-1-yl]-2H-1,3′-bipyridin-2-one] |
| 71.1 nM | CN(C)C(=O)C1CCN(c2ccc(-n3ccc(OCc4ccccc4)cc3=O)cn2)C1 (single isomer, unassigned) [Example 25a, 1-[4-(Benzyloxy)-2-oxo-2H-1,3′-bipyridin-6′-yl]-N,N-dimethylpyrrolidine-3-carboxamide] |
| 69.6 nM | CN(C)C(=O)C1CCN(c2ccc(-n3ccc(OCc4ccccc4)cc3=O)cn2)C1 (single isomer, unassigned) [Example 25b, 1-[4-(Benzyloxy)-2-oxo-2H-1,3′-bipyridin-6′-yl]-N,N-dimethylpyrrolidine-3-carboxamide] |
| 47.7 nM | CC(=O)N1CCN(c2ccc(-n3ccc(OCc4ccccc4)cc3=O)cn2)CC1 [Example 1, 6′-(4-Acetylpiperazin-1-yl)-4-(benzyloxy)-2H-1,3′-bipyridin-2-one] |
| 89.9 nM | O=c1cc(OCc2ccccc2)ccn1-c1ccc(N2CCNCC2)nc1 [Example 2, 4-(Benzyloxy)-6′-piperazin-1-yl-2H-1,3′-bipyridin-2-one] |
| 10.1 nM | CN1C[C@@H]2CN(c3ccc(-n4ccc(OCc5ccccc5)cc4=O)cn3)C[C@@H]2C1 [Example 3, 4-(Benzyloxy)-6′-[(3aR,6aS)-5-methylhexahydropyrrolo[3,4-c]pyrrol-2(1H)-yl]-2H-1,3′-bipyridin-2-one] |
| 1950 nM | CC(C)(C)OC(=O)N1C[C@@H]2CN(c3ccc(-n4ccc(OCc5ccccc5)cc4=O)cn3)C[C@@H]2C1 [Example 4, tert-Butyl (3aR,6aS)-5-[4-(benzyloxy)-2-oxo-2H-1,3′-bipyridin-6′-yl]hexahydropyrrolo[3,4-c]pyrrole-2(1H)-carboxylate] |
| 111 nM | CN(C)C1CCN(c2ccc(-n3ccc(OCc4ccccc4)cc3=O)cn2)CC1 [Example 5, 4-(Benzyloxy)-6′-[4-(dimethylamino)piperidin-1-yl]-2H-1,3′-bipyridin-2-one] |
| 163 nM | CN1CCN(c2ccc(-n3ccc(OCc4ccccc4)cc3=O)cn2)CC1 [Example 6, 4-(Benzyloxy)-6′-(4-methylpiperazin-1-yl)-2H-1,3′-bipyridin-2-one] |
| 87.1 nM | CCN1CCN(c2ccc(-n3ccc(OCc4ccccc4)cc3=O)cn2)CC1 [Example 7, 4-(Benzyloxy)-6′-(4-ethylpiperazin-1-yl)-2H-1,3′-bipyridin-2-one] |
| 8.67 nM | O=c1cc(OCc2ccccc2)ccn1-c1ccc(N2C[C@H]3CNC[C@H]3C2)nc1 [Example 8, 4-(Benzyloxy)-6′-[(3aR,6aS)-hexahydropyrrolo[3,4-c]pyrrol-2(1H)-yl]-2H-1,3′-bipyridin-2-one dihydrochloride] |
| 42.8 nM | O=c1cc(OCc2ccc(Cl)cc2)ccn1-c1ccc(N2CC[C@@H](O)C2)nc1 [Example 10, 4-[(4-Chlorobenzyl)oxy]-6′-[(3R)-3-hydroxypyrrolidin-1-yl]-2H-1,3′-bipyridin-2-one] |
| 97.2 nM | O=c1cc(OCc2ccccc2)ccn1-c1ccc(N2CC[C@@H](O)C2)nc1 [Example 11, 4-(Benzyloxy)-6′-[(3R)-3hydroxypyrrolidin-1-yl]-2H-1,3′-bipyridin-2-one] |
| 9.98 nM | CN(C(=O)OC(C)(C)C)[C@H]1CCN(c2ccc(-n3ccc(OCc4ccccc4)cc3=O)cn2)C1 [Example 12, tert-Butyl {(3S)-1-[4-(benzyloxy)-2-oxo-2H-1,3′-bipyridin-6′-yl]pyrrolidin-3-yl}methyl carbamate] |
| 4.88 nM | CN[C@H]1CCN(c2ccc(-n3ccc(OCc4ccccc4)cc3=O)cn2)C1 [Example 13, 4-(Benzyloxy)-6′-[(3S)-3-(methylamino)pyrrolidin-1-yl]-2H-1,3′-bipyridin-2-one dihydrochloride] |
| 3.62 nM | CN[C@@H]1CCN(c2ccc(-n3ccc(OCc4ccccc4)cc3=O)cn2)C1 [Example 15, 4-(benzyloxy)-6′-[(3R)-3-(methylamino)pyrrolidin-1-yl]-2H-1,3′-bipyridin-2-one dihydrochloride] |
| 133 nM | O=c1cc(OCc2ccccc2)ccn1-c1ccc(N2CC[C@H](O)C2)nc1 [Example 16, 4-(benzyloxy)-6′-[(3S)-3-hydroxypyrrolidin-1-yl]-2H-1,3′-bipyridin-2-one] |
| 6.78 nM | CCN[C@@H]1CCN(c2ccc(-n3ccc(OCc4ccccc4)cc3=O)cn2)C1 [Example 19, 4-(Benzyloxy)-6′-[(3R)-3-(ethylamino)pyrrolidin-1-yl]-2H-1,3′-bipyridin-2-one] |

| Ki | Structure (SMILES) |
| --- | --- |
| 15.2 nM | CC(=O)N(C)[C@H]1CCN(c2ccc(-n3ccc(OCc4ccccc4)cc3=O)cn2)C1 [Example 20, N-{(3S)-1-[4-(Benzyloxy)-2-oxo-2H-1,3′-bipyridin-6′-yl]pyrrolidin-3-yl}-N-methylacetamide] |
| 15.7 nM | CCN(C(=O)OC(C)(C)C)[C@@H]1CCN(c2ccc(-n3ccc(OCc4ccccc4)cc3=O)cn2)C1 [Example 23a, tert-Butyl {(3R)-1-[4-(benzyloxy)-2-oxo-2H-1,3′-bipyridin-6′-yl]pyrrolidin-3-yl}ethylcarbamate] |
| 6.64 nM | CCN1C[C@@H]2CN(c3ccc(-n4ccc(OCc5ccccc5)cc4=O)cn3)C[C@@H]2C1 [Example 26, 4-(Benzyloxy)-6′-[(3aR,6aS)-5-ethylhexahydropyrrolo[3,4-c]pyrrol-2(1H)-yl]-2H-1,3′-bipyridin-2-one] |
| 71.4 nM | O=C1CCCN1[C@H]1CCN(c2ccc(-n3ccc(OCc4ccccc4)cc3=O)cn2)C1 [Example 27] |
| 23.7 nM | O=c1cc(OCc2ccc(Cl)cc2)ccn1-c1ccc(N2CC[C@H](O)C2)nc1 [Example 29, 4-[(4-Chlorobenzyl)oxy]-6′-[(3S)-3-hydroxypyrrolidin-1-yl]-2H-1,3′-bipyridin-2-one] |
| 2470 nM | O=C1CCN(c2ccc(-n3ccc(OCc4ccccc4)cc3=O)cn2)C1 [Example 30, 4-(Benzyloxy)-6′-(3-oxopyrrolidin-1-yl)-2H-1,3′-bipyridin-2-one] |
| 18.3 nM | CN(C(=O)OC(C)(C)C)[C@H]1CCN(c2ccc(-n3ccc(CCc4ccccc4)cc3=O)cn2)C1 [Example 32, tert-Butyl methyl{(3S)-1-[2-oxo-4-(2-phenylethyl)-2H-1,3′-bipyridin-6′-yl]pyrrolidin-3-yl}-carbamate] |
| 19.4 nM | CN[C@@H]1CCN(c2ccc(-n3ccc(OCc4ccccc4)cc3=O)nc2)C1 [Example 33, 4-(Benzyloxy)-5′-[(3R)-3-(methylamino)pyrrolidin-1-yl]-2H-1,2′-bipyridin-2-one] |
| 54.3 nM | O=c1cc(OCc2ccccc2)ccn1-c1ccc(N2CCCC2)nc1 [Example 34, 4-(benzyloxy)-6′-pyrrolidin-1-yl-2H-1,3′-bipyridin-2-one] |
| 232 nM | NC1CN(c2ccc(-n3ccc(OCc4ccc(F)cc4)cc3=O)cn2)C1 [Example 35] |
| 75.5 nM | CO[C@H]1CCN(c2ccc(-n3ccc(OCc4ccccc4)cc3=O)cn2)C1 [Example 36] |
| 42.7 nM | COC1CCN(c2ccc(-n3ccc(OCc4ccccc4)cc3=O)cn2)C1 (centres unmarked) [Example 37] |
| 42 nM | CCO[C@@H]1CCN(c2ccc(-n3ccc(OCc4ccccc4)cc3=O)cn2)C1 [Example 39] |
| 34.1 nM | CCO[C@H]1CCN(c2ccc(-n3ccc(OCc4ccccc4)cc3=O)cn2)C1 [Example 40] |
| 364 nM | CCOC(=O)N[C@@H]1CCN(c2ccc(-n3ccc(OCc4ccccc4)cc3=O)cn2)C1 [Example 43] |
| 113 nM | CC1(O)CCN(c2ccc(-n3ccc(OCc4ccccc4)cc3=O)cn2)CC1 [Example 44] |
| 270 nM | CC(C)C1(O)CCN(c2ccc(-n3ccc(OCc4ccccc4)cc3=O)cn2)C1 (centres unmarked) [Example 45] |
| 212 nM | O=c1cc(OCc2ccccc2)ccn1-c1ccc(N2CCC(O)CC2)nc1 [Example 46] |
| 57.8 nM | COC1CCN(c2ccc(-n3ccc(OCc4ccccc4)cc3=O)cn2)CC1 [Example 47] |
| 705 nM | COC(=O)N1CCN(c2ccc(-n3ccc(OCc4ccccc4)cc3=O)cn2)CC1 [Example 48] |
| 3.66 nM | N[C@H]1CCN(c2ccc(-n3ccc(OCc4ccccc4)cc3=O)cn2)C1 [Example 55, 6′-[(3S)-3-aminopyrrolidin-1-yl]-4-(benzyloxy)-2H-1,3′-bipyridin-2-one] |

same assay, conditions: MCHR-1 functional Ki (nM), CHO cells stably expressing human MCHR1; cAMP accumulation with 25 uM forskolin and 0.2 nM MCH, 90 min; Ki from IC50 by Cheng-Prusoff

| Structure (SMILES) | Ki |
| --- | --- |
| N[C@@H]1CCN(c2ccc(-n3ccc(OCc4ccccc4)cc3=O)cn2)C1 [Example 54] | 5.91 nM |
